# Experiments:
# ABCG2 = target: T1, ABCG2 (Homo sapiens, UniProt Q9UNQ0); assay: Sensitivity to ABCG2 transporter; type: cell-based
# T1 sequence (Q9UNQ0 1-655): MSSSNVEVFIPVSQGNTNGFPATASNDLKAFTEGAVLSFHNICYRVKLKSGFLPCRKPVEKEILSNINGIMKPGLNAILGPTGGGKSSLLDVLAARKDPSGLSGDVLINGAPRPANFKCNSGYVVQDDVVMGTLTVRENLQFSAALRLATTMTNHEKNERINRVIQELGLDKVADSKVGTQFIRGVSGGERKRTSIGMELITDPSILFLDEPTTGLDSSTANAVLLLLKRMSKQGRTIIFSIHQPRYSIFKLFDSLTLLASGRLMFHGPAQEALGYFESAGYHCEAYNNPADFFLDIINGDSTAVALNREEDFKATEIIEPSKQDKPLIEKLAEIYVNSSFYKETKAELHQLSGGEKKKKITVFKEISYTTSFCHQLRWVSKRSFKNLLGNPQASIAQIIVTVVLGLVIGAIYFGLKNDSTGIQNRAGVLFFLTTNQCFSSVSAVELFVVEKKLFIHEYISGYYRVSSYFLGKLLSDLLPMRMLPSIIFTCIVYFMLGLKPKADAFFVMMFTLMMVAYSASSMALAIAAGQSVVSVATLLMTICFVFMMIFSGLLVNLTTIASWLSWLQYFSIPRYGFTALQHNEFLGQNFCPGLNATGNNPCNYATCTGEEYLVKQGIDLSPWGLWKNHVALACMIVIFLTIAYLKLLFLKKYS
# several cell lines = settings: cited from earlier work
# [1] = test system: wide range of cancer cell lines; settings: Lee et al.; cited from earlier work
# [2] = Kim et al.; doses 10 times higher than the clinically applicable dose; cited from earlier work
# patients = settings: domestic clinical studies; cited from earlier work
# [3] = test system: HCT-8 and FaDu cell lines; assay: Western blot of anti-apoptotic proteins in HCT-8 and FaDu; type: cell-based; settings: FIG. 6
# From the text: GAPDH is an enzyme involved in glycolysis, which is an essential metabolic process in cells.
# in vitro cytotoxicity = assay: In vitro cytotoxicity of FL118, exatecan versus SN-38; type: cell-based; settings: FIG. 5
# DDX5 protein = DDX5 protein (Homo sapiens, UniProt P17844); assay: DDX5 degradation by camptothecin drugs; type: cell-based; settings: FIGS. 7 to 10
# Chain of DDX5 protein (P17844 whole entry): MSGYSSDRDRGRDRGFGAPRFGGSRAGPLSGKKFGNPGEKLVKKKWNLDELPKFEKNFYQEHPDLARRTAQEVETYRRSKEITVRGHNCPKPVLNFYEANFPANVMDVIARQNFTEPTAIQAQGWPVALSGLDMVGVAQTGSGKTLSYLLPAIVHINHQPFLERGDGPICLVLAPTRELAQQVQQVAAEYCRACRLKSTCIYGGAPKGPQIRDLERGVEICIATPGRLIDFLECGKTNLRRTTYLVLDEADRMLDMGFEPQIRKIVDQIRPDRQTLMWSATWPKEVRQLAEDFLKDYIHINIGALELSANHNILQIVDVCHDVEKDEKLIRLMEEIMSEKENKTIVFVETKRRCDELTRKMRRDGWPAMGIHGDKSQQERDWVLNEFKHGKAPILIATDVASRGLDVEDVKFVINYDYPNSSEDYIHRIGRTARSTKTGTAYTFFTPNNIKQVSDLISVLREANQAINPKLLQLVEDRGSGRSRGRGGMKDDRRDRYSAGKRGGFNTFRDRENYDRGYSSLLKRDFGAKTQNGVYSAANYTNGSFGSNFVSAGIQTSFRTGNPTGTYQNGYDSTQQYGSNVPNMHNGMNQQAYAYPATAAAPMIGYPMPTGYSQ
# DNA topoisomerase I = DNA topoisomerase I (Homo sapiens, UniProt P11387); settings: versus SN-38 and topotecan; cited from earlier work
# Chain of DNA topoisomerase I (P11387 whole entry): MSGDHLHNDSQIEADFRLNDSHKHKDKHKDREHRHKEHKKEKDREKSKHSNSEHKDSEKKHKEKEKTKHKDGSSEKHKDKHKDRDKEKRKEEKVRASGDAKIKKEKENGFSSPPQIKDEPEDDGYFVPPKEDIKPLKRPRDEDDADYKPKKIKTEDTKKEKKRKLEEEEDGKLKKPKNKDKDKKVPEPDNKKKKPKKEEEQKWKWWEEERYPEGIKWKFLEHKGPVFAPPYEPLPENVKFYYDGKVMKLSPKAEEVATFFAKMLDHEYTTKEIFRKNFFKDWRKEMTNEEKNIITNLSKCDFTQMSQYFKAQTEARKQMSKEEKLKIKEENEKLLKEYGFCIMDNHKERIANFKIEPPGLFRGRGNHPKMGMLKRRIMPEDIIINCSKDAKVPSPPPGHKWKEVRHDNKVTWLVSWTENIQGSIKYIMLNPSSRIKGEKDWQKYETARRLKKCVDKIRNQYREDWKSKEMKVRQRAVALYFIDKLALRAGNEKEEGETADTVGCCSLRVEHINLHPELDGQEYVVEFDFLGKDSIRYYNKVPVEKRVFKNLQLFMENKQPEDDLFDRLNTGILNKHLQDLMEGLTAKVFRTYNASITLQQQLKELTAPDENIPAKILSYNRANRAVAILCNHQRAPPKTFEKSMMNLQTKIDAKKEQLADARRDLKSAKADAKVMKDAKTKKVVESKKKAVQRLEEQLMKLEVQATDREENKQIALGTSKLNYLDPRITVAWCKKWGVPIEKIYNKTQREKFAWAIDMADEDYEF
# various cancer cells = settings: resistance due to expression of P-glycoprotein; cited from earlier work
# [4] = Lactone to carboxylate form conversion in pH 7.4; type: physicochemical; settings: for rate of conversion from lactone to carboxylate form / degraded at 3 µM: pH 7.4, 37 °C; for degraded at 3 µM: PBS with 10% DMSO, read-out: carboxylate form formed; for lactone to carboxylate conversion versus reference compounds: pH 7.4, reference: exatecan, DXd, SN-38, FL118
# Procedure: 3-2. Lactone to Carboxylate Form Conversion in pH 7.4
# Afterwards, it was centrifuged at 4 °C, 2 minutes, and 13,000 RCF conditions, and the supernatant was used as a sample.
# The column used was Cortecs C18 2.7 μm, 4.6×50 mm Column, and analysis was conducted under the following conditions. 1) 20 minutes: 5% B, 2) sample injection, 3) 2 minutes: 5% B, 4) 10 minutes: 5% B→50% B, 5) 1 minute: 50% B.
# In order to measure changes over time, the sample chamber was maintained at 37 °C, and the sample was set to be injected every measurement time. The measurement times were 0, 20, 40, 60, 90, 120, 180, 240, 300, 360, 480, 600 and 720 minutes.
# The content was calculated from the peak area of each lactone and carboxylate. Since the absorption coefficients of lactone and carboxylate are different, the lactone area was obtained by multiplying the carboxylate area by the equation below.
# FaDu cell line = assay: Western blot of DDX5 and anti-apoptotic proteins in FaDu; type: cell-based; settings: 0, 10, 100 nM; for DDX5 degradation ranking: FaDu and A549; for expression of anti-apoptotic proteins: Survivin, cIAP2, Mcl-1, XIAP, 24 hours
# Procedure: 1-1: Confirmation of Suppressive Activity of Expression of Cancer-Related Survival Genes of DDX5, Survivin, Mcl-1, XIAP and cIAP2 Through Western Blot
# 200,000 FaDu cell lines were seeded per well in a 6-well plate and incubated at constant temperature (37 °C, 5% CO2). […] It was incubated at constant temperature (37 °C, 5% CO2) for 24 hours. The well was treated with 100 μL of RIPA buffer dissolved in protease inhibitor cocktail. […] Protein concentration was determined through protein assay.
# Electrophoresis was performed on the gel at 60V.
# 7 sheets of activated filter paper, PVDF membrane, gel and 7 sheets of filter paper were placed in order in the cassettes of the Trans-Blot® Turbo™ Transfer System, and the lid was closed, and after being inserted into the machine, the protocol started.
# The transferred membrane was immersed in blocking buffer and incubated at constant temperature (RT, 1h). Next, it was incubated at 4 °C overnight in primary antibody solution. It was rinsed with TBST buffer for 3 minutes (repeated 3 times). Incubation was performed (RT, 1h) in a secondary antibody solution conjugated with HRP. It was rinsed with TBST buffer for 3 minutes (repeated 3 times).
# After soaking the membrane in the ECL substrate for 3 to 5 minutes, the signal was determined by using the ChemiDoc™ MP Imaging System.
# A549 cell line = assay: Western blot of DDX5 and anti-apoptotic proteins in A549; type: cell-based; settings: for DDX5 degradation ranking: FaDu and A549, 0, 10, 100 nM
# FaDu = assay: Cell viability assay in FaDu; type: cell-based
# Procedure: (§1) After 24 hours, 100 μL of the drug at 9 concentrations (serial dilution of 1/5 from 1,000 nM) was treated with the cells. […] In this case, a control group that was not treated with the drug (drug concentration 0) was also prepared. It was cultured at constant temperature (37 °C, 5% CO2) for 3 or 6 days. 100 μL of CellTiter-Glo reagent (using CellTiter-Glo® Luminescent Cell Viability Assay kit (Promega, G7571)) was added to each well and pipetted. After incubation at constant temperature (RT) for 10 minutes, luminescence was measured.
# A549 = assay: Cell viability assay in A549; type: cell-based; settings: for efficacy / IC50 in ABCG2-overexpressing cells: A549, FIG. 9
# Procedure: as §1
# MDA-MB-468 tumor model = assay: In vivo efficacy in MDA-MB-468 model (EGFR ADCs); set-up: species or system mouse
# Procedure: Cells growing in exponential growth phase were harvested and counted for tumor inoculation.
# MDA-MB-468 cells (1×10^7) in 0.2 mL of DPBS with Matrigel were inoculated subcutaneously into the right anterior flank of each mouse. When the average tumor volume reached approximately 215 mm^3, animals were randomly grouped, and then, treatment for drug efficacy studies was initiated.
# During routine monitoring, normal behavior such as mobility, food and water consumption (observation only), body weight changes (weighed twice weekly), eye/hair mailing, tumor growth and effectiveness of treatment were checked in animals every day. Deaths and observed clinical signs were recorded based on the number of animals in each subset.
# The primary endpoint was determined as a time point when tumor growth could be delayed or the mice could be cured. The two-dimensional size of the tumor was measured twice weekly using a caliper, and the volume was expressed in mm^3 using the equation (V=0.5 a×b^2, where a and b are the long and short diameters of the tumor, respectively).
# Tumor growth inhibition (TGI) was calculated for each group.
# TGI (%)=[1−(Ti/T0)/(Vi/V0)]×100 […]
# rats and beagle dogs = assay: FL118 GLP-toxicity tests; type: in vivo; settings: GLP-toxicity tests in rats and beagle dogs
# From the text: (§2) Meanwhile, camptothecin-based anticancer drugs show excellent anticancer responses initially when used in patients, but strong resistance to these drugs appears through Epigenetic Silencing of the Top1 gene and Top2 Dependence of cancer cells.
# [5] = test system: cancer cell line Xenograft models; assay: FL118 xenograft and human tumor animal model efficacy; type: in vivo
# From the text: Genetic manipulation of DDX5 in PDAC cells affects tumor growth.
# as §2
# [6] = FL118 pharmacokinetics and tumor accumulation; type: in vivo
# From the text: For example, when applying ADC, maximum selectivity between tumor tissue and normal tissue is ensured.
# [7] = test system: cancer cell line Xenograft models; settings: cited from earlier work
# PDAC cells with DDX5 KO = settings: cited from earlier work
compound,measurement,setting,value
CCc1c2c(nc3ccc(O)cc13)-c1cc3c(c(=O)n1C2)COC(=O)[C@]3(O)CC [SN-38],sensitivity to ABCG2,ABCG2,show resistance in the way that the drug is released out of the cell due to overexpression of the ABCG2 Transporter
same,IC50,several cell lines,nanomolar range
CC[C@@]1(O)C(=O)OCc2c1cc1n(c2=O)Cc2c-1nc1ccccc1c2CCNC(C)C [CKD-602],anticancer effects versus camptothecin and topotecan,[1],superior anticancer effects compared to camptothecin and topotecan
same,adverse drug reactions,[2],no adverse drug reactions other than increased gastric secretion
same,side effects in clinical studies,patients,only reversible and controllable side effects such as neutropenia and leukopenia
CC[C@@]1(O)C(=O)OCc2c1cc1n(c2=O)Cc2c-1nc1cc(F)c(C)c3c1c2[C@@H](N)CC3 [Exatecan],sensitivity to ABCG2,ABCG2,almost unaffected by ABCG2
same,downregulating tumor proteins versus SN-38,[3],better efficacy in downregulating tumor proteins compared to the SN-38 drug
same,in vitro cytotoxicity versus SN-38,in vitro cytotoxicity,better efficacy against in vitro cytotoxicity compared to SN-38
same,DDX5 degradation mechanism of action,DDX5 protein,exerts a mechanism of action (MoA) to degrade DDX5 protein
same,type I topoisomerase inhibitory activity,DNA topoisomerase I,stronger type I topoisomerase inhibitory activity than SN-38
same,effect on cancer cells resistant to SN-38 and other drugs,various cancer cells,effective against cancer cells that are resistant to SN-38
CC[C@@]1(O)C(=O)OCc2c1cc1n(c2=O)Cc2c-1nc1cc3c(c4c1c2[C@@H](NC(=O)CO)CC4)OCO3 [PBX-7014],rate of conversion from lactone to carboxylate form,[4],0.8 % per minute
same,degraded at 3 µM,[4],> 86%
same,lactone to carboxylate conversion versus reference compounds,[4],faster and at a higher rate than other reference compounds
same,DDX5 degradation ranking,FaDu cell line,"followed by 7011, 7016 and 7014"
same,expression of anti-apoptotic proteins,FaDu cell line,"decrease in the expression of Survivin, cIAP2, Mcl-1 and XIAP as the concentration increased"
same,dual mechanism (topoisomerase I inhibition and DDX5 degradation),A549 cell line,dual MoA that acts as a degrader of DDX5 (p68)
same,DDX5 degradation ranking,A549 cell line,"followed by 7011, 7016 and 7014"
"CC[C@@]1(O)C(=O)OCc2c1cc1n(c2=O)Cc2c-1nc1cc3c(c4c1c2[C@@H](N)CC4)OCO3 (single isomer, unassigned) [PBX-7011]",DDX5 degradation ranking,FaDu cell line,"followed by 7011, 7016 and 7014"
same,expression of anti-apoptotic proteins,FaDu cell line,"decrease in the expression of Survivin, cIAP2, Mcl-1 and XIAP as the concentration increased"
same,DDX5 degradation ranking,A549 cell line,"followed by 7011, 7016 and 7014"
CC[C@@]1(O)C(=O)OCc2c1cc1n(c2=O)Cc2c-1nc1cc3c(c4c1c2[C@@H](NC(=O)[C@@H](O)C1CC1)CC4)OCO3 [PBX-7024],sensitivity to ABCG2,ABCG2,not affected by ABCG2
same,lactone to carboxylate conversion versus reference compounds,[4],faster and at a higher rate than other reference compounds
same,IC50 compared to Dxd,"FaDu; 3 days, FIG. 9",IC50 of an equal or higher level compared to Dxd
same,apoptosis effect,"FaDu; does not express ABCG2, 3 days",strong apoptosis effect
same,efficacy / IC50 in ABCG2-overexpressing cells,A549,still maintained strong efficacy
same,apoptosis effect,"A549; A549, overexpresses ABCG2, 3 days",strong apoptosis effect
same,IC50 compared to Dxd,"A549; FaDu and A549, 3 days, FIG. 9",IC50 of an equal or higher level compared to Dxd
Nimotuzumab-CL2A-FL118: nimotuzumab ADC with CL2A-FL118 (Example 4),efficacy,"MDA-MB-468 tumor model; 1 mpk, 5 mpk and 10 mpk, versus cetuximab-based ADC",better efficacy
same,in vivo efficacy versus Cetuximab-CL2A-FL118,MDA-MB-468 tumor model; FIG. 22,better efficacy compared to Cetuximab-CL2A-FL118
"CC[C@@]1(O)C(=O)OCc2c1cc1n(c2=O)Cc2c-1nc1cc(F)c(C)c3c1c2[C@@H](NC(=O)CO)CC3 [Dxd, reference compound]",sensitivity to ABCG2,ABCG2,strongly influenced by ABCG2
same,rate of conversion from lactone to carboxylate form,[4],0.6 % per minute
same,degraded at 3 µM,[4],76.5%
same,efficacy / IC50 in ABCG2-overexpressing cells,A549,increased IC50 values
same,DDX5 degradation mechanism of action,DDX5 protein,exerts a mechanism of action (MoA) to degrade DDX5 protein
"CC[C@@]1(O)C(=O)OCc2c1cc1n(c2=O)Cc2cc3cc4c(cc3nc2-1)OCO4 [FL118, 10, 11-methylenedioxy-camptothecin]",safety,rats and beagle dogs,excellent safety
same,"xenograft efficacy, Top1 not expressed",[5]; Epigenetic Silencing or Knock-out of Top1,strong efficacy
same,anticancer efficacy after SN-38 resistance,[5]; after inducing SN-38 resistance in tumor xenograft,strong anticancer efficacy
same,tumor regression efficacy,"[5]; same amount as SN-38, colon, head and neck, pancreatic cancer",stronger tumor regression efficacy than SN-38
same,xenograft efficacy,[5]; versus SN-38 in various cancer cell line Xenograft models,superior efficacy compared to SN-38
same,sensitivity to ABCG2,ABCG2,not affected by the ABCG2 Transporter
same,accumulation in cancer tissue,[6]; immediately after administration,accumulates quickly in cancer tissue
same,blood clearance,[6]; systemic administration alone,rapidly metabolized and excreted from the blood
same,DDX5 degradation ranking,FaDu cell line,superior to other substances
same,DDX5 degradation ranking,A549 cell line,superior to other substances
same,downregulating tumor proteins versus SN-38,[3],better efficacy in downregulating tumor proteins compared to the SN-38 drug
same,in vitro cytotoxicity versus SN-38,in vitro cytotoxicity,better efficacy against in vitro cytotoxicity compared to SN-38
same,DDX5 degradation mechanism of action,DDX5 protein,directly binds to the tumor protein DDX5
same,"efficacy in eliminating human PDAC and CRC tumors, high DDX5 expression",[7]; high DDX5 expression,high efficacy
same,"efficacy in PDAC and CRC tumors, low DDX5 expression",[7]; low DDX5 expression,less effective
same,sensitivity of DDX5 KO cells,PDAC cells with DDX5 KO,resistant
